Patent publication US7902200B2, “Chemical compounds” (AstraZeneca AB, priority 2006, dated 2011)

Tests used:
[1] = molecular target: T1, recombinant human pancreatic GLK (Homo sapiens, UniProt P35557); test: GKH4 variant of GLK enzymatic activity assay (automated end-point assay); format: biochemical; conditions: activation of GLK; 10 nmol/l GLK; end-point at 10 minutes; no GLKRP
T1 construct: 6-His (N); made in house; host or cells: E. coli BL21
T1 sequence (P35557 1-465): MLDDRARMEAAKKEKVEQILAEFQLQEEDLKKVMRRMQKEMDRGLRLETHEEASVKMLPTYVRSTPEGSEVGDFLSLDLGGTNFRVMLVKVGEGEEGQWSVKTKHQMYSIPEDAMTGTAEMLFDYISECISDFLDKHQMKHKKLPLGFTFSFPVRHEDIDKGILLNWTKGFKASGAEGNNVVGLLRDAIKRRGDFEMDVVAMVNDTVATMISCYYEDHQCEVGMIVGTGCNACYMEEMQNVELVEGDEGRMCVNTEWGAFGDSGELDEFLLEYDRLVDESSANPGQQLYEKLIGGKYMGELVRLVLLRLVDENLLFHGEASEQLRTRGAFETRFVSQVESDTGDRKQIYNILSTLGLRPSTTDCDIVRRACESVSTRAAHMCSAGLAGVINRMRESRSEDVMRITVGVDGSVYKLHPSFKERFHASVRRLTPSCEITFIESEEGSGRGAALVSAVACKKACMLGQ
Experimental: (§1) Enzymatic activity of recombinant human pancreatic GLK may be measured by incubating GLK, ATP and glucose. The rate of product formation may be determined by coupling the assay to a G-6-P dehydrogenase, NADP/NADPH system and measuring the linear increase with time of optical density at 340 nm (Brocklehurst et al (Diabetes 2004, 53, 535-541). Activation of GLK by compounds can be assessed using this assay in the presence or absence of GLKRP as described in Brocklehurst et al (Diabetes 2004, 53, 535-541).
(§2) One or both of two variants of this assay, GKH1 and GKH4, were used to test the compounds of the invention. The GKH1 assay is a manual, bench-top rate assay using 60 nmol/l of recombinant human pancreatic GLK. The GLK activity rate is measured over a 5 minute window using a Multiskan Ascent spectrophotometer. The GKH4 assay is an automated end-point assay using 10 nmol/l of recombinant human pancreatic GLK. The GLK activity is measured at 10 minutes after the initiation of the assay on a Perkin Elmer Envision spectrophotometer.

[2] = molecular target: T1, recombinant human pancreatic GLK; test: GKH1 variant of GLK enzymatic activity assay (manual bench-top rate assay); format: biochemical; conditions: activation of GLK; 60 nmol/l GLK; rate over 5 minute window; no GLKRP
Experimental: as §1, §2

Structure (SMILES)	EC50 [1] [µM]	EC50 [2] [µM]
Cc1cnc(NC(=O)c2cc(Oc3ccc4c(c3)OCN(C)C4=O)cc(O[C@H]3CCN(C)C3=O)c2)cn1 [Example 15, 3-[(4-Methyl-5-oxo-2-oxa-4-azabicyclo[4.4.0]deca-6,8,10-trien-9-yl)oxy]-5-(1-methyl-2-oxo-pyrrolidin-3-yl)oxy-N-(5-methylpyrazin-2-yl)benzamide]	0.35	0.1
Cc1cnc(NC(=O)c2cc(Oc3ccc(C(=O)N4CCC4)nc3)cc(O[C@@H]3CCN(C4CC4)C3=O)c2)cn1 [Example 18, 3-[6-(Azetidine-1-carbonyl)pyridin-3-yl]oxy-5-[(3R)-1-cyclopropyl-2-oxo-pyrrolidin-3-yl]oxy-N-(5-methylpyrazin-2-yl)benzamide]	7.23	3.34
Cc1cnc(NC(=O)c2cc(Oc3ccc(C(=O)N4CCC4)nc3)cc(O[C@@H]3CCN(C4CCC4)C3=O)c2)cn1 [Example 20, 3-[6-(Azetidine-1-carbonyl)pyridin-3-yl]oxy-5-[(3R)-1-cyclobutyl-2-oxo-pyrrolidin-3-yl]oxy-N-(5-methylpyrazin-2-yl)benzamide]	0.9	0.42
Cc1cnc(NC(=O)c2cc(Oc3ccc(C(=O)N4CCC4)nc3)cc(O[C@H]3CCN(C4CCC4)C3=O)c2)cn1 [Example 21, 3-[6-(Azetidine-1-carbonyl)pyridin-3-yl]oxy-5-[(3S)-1-cyclobutyl-2-oxo-pyrrolidin-3-yl]oxy-N-(5-methylpyrazin-2-yl)benzamide]	1.11	0.21
CCN1CC[C@@H](Oc2cc(Oc3ccc(C(=O)N4CCC4)nc3)cc(C(=O)Nc3cnc(C)cn3)c2)C1=O [Example 22, -[6-(Azetidine-1-carbonyl)pyridin-3-yl]oxy-5-[(3R)-1-ethyl-2-oxo-pyrrolidin-3-yl]oxy-N-(5-methylpyrazin-2-yl)benzamide]	6.61	2.37
CCN1CC[C@H](Oc2cc(Oc3ccc(C(=O)N4CCC4)nc3)cc(C(=O)Nc3cnc(C)cn3)c2)C1=O [Example 23, 3-[6-(Azetidine-1-carbonyl)pyridin-3-yl]oxy-5-[(3S)-1-ethyl-2-oxo-pyrrolidin-3-yl]oxy-N-(5-methylpyrazin-2-yl)benzamide]	0.22	0.05
Cc1cnc(NC(=O)c2cc(Oc3cnc(C(=O)N(C)C)cn3)cc(O[C@H]3CCN(C)C3=O)c2)cn1 [Example 24, N,N-Dimethyl-5-[3-[(3S)-1-methyl-2-oxo-pyrrolidin-3-yl]oxy-5-[(5-methylpyrazin-2-yl)carbamoyl]phenoxy]pyrazine-2-carboxamide]	0.57	0.15
CN1CC[C@H](Oc2cc(Oc3ccc4c(c3)OCCCS4(=O)=O)cc(C(=O)Nc3cc[nH]n3)c2)C1=O [Example 25, 3-[(2,2-Dioxo-6-oxa-2-λ^6-thiabicyclo[5.4.0]undeca-7,9,11-trien-9-yl)oxy]-5-[(3S)-1-methyl-2-oxo-pyrrolidin-3-yl]oxy-N-(1H-pyrazol-3-yl)benzamide]	0.04	0.03
